Experimental data published in paper PMC11864945 (Frontiers in Pharmacology, 2025).
Where two headings read alike, the source gives them in different places.

Key:
[1] = Stability of the analytes in beagle dog plasma (bench top, refrigerator, freeze–thaw, autosampler, short and long term storage); type: physicochemical; details: for Mean stability sample ±SD: n = 5
Procedure: Stability experiments were conducted in working solutions of the analytes and IS for short term stability at 4°C and stock solutions for long term stability at −20°C, respectively. Peak area ratio responses (Analytes/IS) of stored solutions were compared with those of freshly prepared solutions. The acceptance criterion was ±10.0% deviation when comparing the values of fresh solutions. The stabilities of the analytes in beagle dog plasma were evaluated by analyzing five replicates at LQC and HQC levels. Types of stabilities were following as: bench top stability (room temperature), refrigerator stability (4°C), autosampler stability for processed samples (6°C), freeze–thaw stability (−80°C), short term stability (−20°C) and long term (–80°C) storage stability.

[2] = beagle, dog, in vivo; for AUC0–30 / AUC0–inf / Cmax / Kel (elimination rate constant) / Tmax / t1/2 (elimination half–life): po
Procedure: (§1) Adaptive feeding and observation were carried out for 7 days before the bioequivalence study. Physical examination, blood routine and blood biochemical tests were performed the day before the trial to ensure the health of the dogs. […] The subjects were orally administered a single dose of test or reference formuations with 100 mL of water with a washout period of 2 weeks. Blood samples were collected into heparinized tubes at 0.00 (pre–dose), 0.17, 0.33, 0.67, 1.00, 1.50, 2.00, 2.50, 3.00, 4.00, 5.00, 6.00, 7.00, 8.00, 9.00, 10.00, 11.00, 12.00, 14.00, 24.00 and 30.00 h after oral administration. […] The number of blood collections for drug analysis was 21 samples in each study period. The collected blood samples were centrifuged in a pre–cooled centrifuge at 2,150 g for 10 min, and the separated plasma was transferred to a clean centrifuge tube and frozen in a −80°C refrigerator until analysis.
(§2) The pharmacokinetic parameters for the analytes were evaluated by non–compartmental analysis using Phoenix WinNonlin software version 8.1 (Certara Corporation, Radnor, PA, United States). The maximum plasma concentration (Cmax), the area under the plasma concentration-time curve from time zero to the last sampling time (AUC0–30), the area under the plasma concentration-time curve from time zero to infinity (AUC0–inf), as the primary target, and their geometric mean ratios (test/reference) using log transformed data were assessed to determine whether the formulations were pharmacokinetically equivalent.
(§3) The study was conducted as an open label, balanced, randomized, crossover, two–treatment, two–period, two–sequence and single–dose design to compare the bioavailability of PYR, PRA, FBT, FEN and OXF between two products in 38 healthy beagle dogs. Each subject received a tablet from the test product (Self–developed preparation) and a tablet from reference product (Drontal® Plus Flavor) under fasting conditions with a washout period of 2 weeks.

in vivo = details: beagle, dog, po; for AUC(0-t): AUC0–30; for AUC(0-inf): AUC0–inf; for k el: Kel (elimination rate constant); for half-life: t1/2 (elimination half–life)
Procedure: as §1, §2, §3

[3] = stock solution in DMF, −20°C
Procedure: Individual stock solutions of PYR, PRA, FBT, FEN and OXF were prepared for standards and quality control samples in DMF at 1 mg/mL. IS stock solution was also prepared in DMF at 400 μg/mL. The mixed working solutions were obtained by mixing the stock solution in different volumes and then performing appropriate dilution in methanol: water (50:50, V/V). The IS working solution of 200 ng/mL was also prepared with DMF from the primary stock solution. […] The working solutions for the analytes and IS were stored at 4°C and brought to room temperature before use.
Stability experiments were conducted in working solutions of the analytes and IS for short term stability at 4°C and stock solutions for long term stability at −20°C, respectively. Peak area ratio responses (Analytes/IS) of stored solutions were compared with those of freshly prepared solutions. The acceptance criterion was ±10.0% deviation when comparing the values of fresh solutions.

[4] = 20 healthy beagle dogs, identical dose strength, ref Klausz et al., 2015, cited from earlier work
[5] = Bioequivalence / pharmacokinetic study of compound febantel tablets after single oral dose, plasma levels by UPLC–MS/MS; details: beagle, dog, 38 beagle dogs, fasting, mean ± SD; for AUC(0-inf): AUC0–inf; for k el: Kel (elimination rate constant); for half-life: t1/2 (elimination half–life)
Procedure: as §1, §2, §3

[6] = autosampler, 6°C, 55 h, processed plasma samples, HQC
[7] = autosampler, 6°C, 55 h, processed plasma samples, LQC
[8] = bench top, room temperature, 8 h, dog plasma, HQC (added 180 ng/mL PYR/OXF, 675 PRA, 90 FBT, 450 FEN)
[9] = bench top, room temperature, 8 h, dog plasma, HQC, % of nominal concentration
[10] = bench top, room temperature, 8 h, dog plasma, LQC (added 12 ng/mL PYR/OXF, 45 PRA, 6 FBT, 30 FEN)
[11] = bench top, room temperature, 8 h, dog plasma, LQC, % of nominal concentration
[12] = freeze–thaw after 3rd cycle at −80°C, dog plasma, HQC
[13] = freeze–thaw after 3rd cycle at −80°C, dog plasma, LQC
[14] = long term, −80°C, 120 days, dog plasma, HQC
[15] = long term, −80°C, 120 days, dog plasma, LQC
[16] = refrigerator, 4°C, 30 h, dog plasma, HQC
[17] = refrigerator, 4°C, 30 h, dog plasma, LQC
[18] = short term, −20°C, 48 h, dog plasma, HQC
[19] = short term, −20°C, 48 h, dog plasma, LQC
[20] = reference product (R), single oral tablet
[21] = test product (T), single oral tablet

SMILES	Mean stability sample ±SD [1, 6]	Accuracy [1, 7]	Mean stability sample ±SD [1, 7]	Mean stability sample ±SD [1, 8]	Accuracy [1, 9]	Mean stability sample ±SD [1, 10]	Accuracy [1, 11]	Accuracy [1, 12]	Mean stability sample ±SD [1, 12]	Accuracy [1, 13]	Mean stability sample ±SD [1, 13]	Accuracy [1, 14]	Mean stability sample ±SD [1, 14]	Accuracy [1, 15]	Mean stability sample ±SD [1, 15]	Accuracy [1, 16]	Mean stability sample ±SD [1, 16]	Accuracy [1, 17]	Mean stability sample ±SD [1, 17]	Accuracy [1, 18]	other results
COC(=O)Nc1nc2ccc(Sc3ccccc3)cc2[nH]1 [Fenbendazole, fenbendazole]	457.91 ± 24.20 ng/mL	100.87%	30.26 ± 0.97 ng/mL	412.09 ± 6.95 ng/mL	91.58%	28.75 ± 0.77 ng/mL	95.83%	99.49%	447.72 ± 13.36 ng/mL	98.82%	29.65 ± 1.05 ng/mL	101.31%	455.87 ± 11.17 ng/mL	102.31%	30.69 ± 0.89 ng/mL	97.40%	438.32 ± 14.73 ng/mL	97.04%	29.11 ± 1.92 ng/mL	104.58%	Mean stability sample ±SD [1, 18]: 470.60 ± 13.89 ng/mL; Accuracy [1, 19]: 103.13%; Mean stability sample ±SD [1, 19]: 30.94 ± 2.18 ng/mL; AUC0–30 [2]: 1,689.33 ± 881.68 h. ng/mL; AUC0–inf [2]: 1,893.90 ± 934.66 h ng/mL; Cmax [2]: 212.35 ± 104.41 ng/mL; Kel (elimination rate constant) [2]: 0.15 ± 0.07 h⁻¹; Tmax [2]: 5.20 ± 3.10 h; t1/2 (elimination half–life) [2]: 5.76 ± 3.70 h; AUC(0-t) (in vivo): 1440 ng·h/mL; AUC(0-inf) (in vivo): 1680 ng·h/mL; k el (in vivo): 4.44e-05 s⁻¹; Tmax (in vivo): 5 ± 3.56 h; half-life (in vivo): 6.96 ± 8.33 h
[2H]C([2H])([2H])OC(=O)Nc1nc2ccc(Sc3ccccc3)cc2[nH]1 [IS, Fenbendazole–D3]																					Long–term stability of stock solution (time remained stable) [3]: 104 days
O=C(C1CCCCC1)N1CC(=O)N2CCc3ccccc3C2C1 (centres unmarked) [Praziquantel, praziquantel]	729.27 ± 27.29 ng/mL	103.68%	46.65 ± 1.23 ng/mL	645.65 ± 11.69 ng/mL	95.65%	44.28 ± 0.95 ng/mL	98.41%	99.19%	669.52 ± 14.97 ng/mL	98.12%	44.15 ± 2.42 ng/mL	91.14%	615.17 ± 19.69 ng/mL	94.44%	42.50 ± 4.13 ng/mL	96.95%	654.44 ± 29.69 ng/mL	98.16%	44.17 ± 3.20 ng/mL	108.18%	Accuracy [1, 6]: 108.04%; Mean stability sample ±SD [1, 18]: 730.20 ± 19.11 ng/mL; Accuracy [1, 19]: 100.34%; Mean stability sample ±SD [1, 19]: 45.15 ± 3.68 ng/mL; GMR (Test/Reference) of AUC0–30 [2]: 101.83%; GMR (Test/Reference) of AUC0–inf [2]: 101.79%; GMR (Test/Reference) of Cmax [2]: 97.63%; AUC0–30 [2]: 3,267.67 ± 1827.15 h. ng/mL; AUC0–inf [2]: 3,317.89 ± 1838.60 h ng/mL; Cmax [2]: 957.04 ± 537.42 ng/mL; Kel (elimination rate constant) [2]: 0.45 ± 0.12 h⁻¹; Tmax [2]: 1.48 ± 0.67 h; t1/2 (elimination half–life) [2]: 1.65 ± 0.46 h; AUC(0-t) (in vivo): 3320 ng·h/mL; AUC(0-inf) (in vivo): 3370 ng·h/mL; k el (in vivo): 0.000122 s⁻¹; Tmax (in vivo): 1.45 ± 1.05 h; half-life (in vivo): 1.66 ± 0.41 h
CN1CCCN=C1/C=C/c1cccs1 [Pyrantel, pyrantel]	194.53 ± 3.27 ng/mL	107.25%	12.87 ± 0.28 ng/mL	163.22 ± 1.45 ng/mL	90.68%	11.30 ± 0.66 ng/mL	94.15%	94.84%	170.71 ± 4.98 ng/mL	92.15%	11.06 ± 0.55 ng/mL	97.25%	175.05 ± 5.76 ng/mL	88.57%	10.63 ± 0.11 ng/mL	97.21%	174.99 ± 6.96 ng/mL	97.18%	11.66 ± 0.93 ng/mL	107.76%	Accuracy [1, 6]: 108.07%; Mean stability sample ±SD [1, 18]: 193.96 ± 8.82 ng/mL; Accuracy [1, 19]: 100.41%; Mean stability sample ±SD [1, 19]: 12.05 ± 0.92 ng/mL; GMR (Test/Reference) of AUC0–30 [2]: 110.18%; GMR (Test/Reference) of AUC0–inf [2]: 111.84%; GMR (Test/Reference) of Cmax [2]: 112.68%; AUC0–30 [2]: 378.04 ± 102.58 ng·h/mL; AUC0–inf [2]: 429.16 ± 117.30 ng·h/mL; Cmax [2]: 69.17 ± 21.12 ng/mL; Kel (elimination rate constant) [2]: 0.20 ± 0.08 h⁻¹; Tmax [2]: 2.87 ± 1.06 h; t1/2 (elimination half–life) [2]: 4.87 ± 4.38 h; AUC(0-t) (in vivo): 423 ± 140 ng·h/mL; AUC(0-inf) (in vivo): 489 ± 186 ng·h/mL; k el (in vivo): 5.28e-05 s⁻¹; Tmax (in vivo): 3.08 ± 0.98 h; half-life (in vivo): 4.27 ± 2.03 h; Cmax ([4]; reference products): 81.1 ng/mL; Cmax ([4]; test products): 78.5 ng/mL
COC(=O)Nc1nc2ccc([S+]([O-])c3ccccc3)cc2[nH]1 (centres unmarked) [Qxfendazole, oxfendazole]	192.72 ± 8.41 ng/mL	106.85%	12.82 ± 0.85 ng/mL	162.16 ± 2.99 ng/mL	90.09%	12.08 ± 1.02 ng/mL	100.65%	97.23%	175.01 ± 5.08 ng/mL	100.97%	12.12 ± 0.84 ng/mL	97.64%	175.76 ± 5.23 ng/mL	93.96%	11.28 ± 0.62 ng/mL	96.84%	174.31 ± 5.37 ng/mL	95.50%	11.46 ± 0.74 ng/mL	105.41%	Accuracy [1, 6]: 107.07%; Mean stability sample ±SD [1, 18]: 189.73 ± 8.17 ng/mL; Accuracy [1, 19]: 98.29%; Mean stability sample ±SD [1, 19]: 11.80 ± 0.79 ng/mL; AUC(0-t) ([5]; AUC0–30, reference product (R), single oral tablet): 2100 ng·h/mL; AUC(0-t) ([5]; AUC0–30, test product (T), single oral tablet): 1790 ng·h/mL; AUC(0-inf) [5, 20]: 2550 ng·h/mL; AUC(0-inf) [5, 21]: 1910 ng·h/mL; Cmax ([5]; reference product (R, Drontal Plus), single oral tablet): 224 ± 112 ng/mL; Cmax ([5]; test product (T), single oral tablet (150 mg FBT, 144 mg pyrantel pamoate, 50 mg PRA)): 184 ± 95.7 ng/mL; k el [5, 20]: 6.11e-05 s⁻¹; k el [5, 21]: 6.67e-05 s⁻¹; Tmax [5, 20]: 6.97 ± 3.47 h; Tmax [5, 21]: 7.08 ± 2.65 h; half-life [5, 20]: 4.17 ± 2.45 h; half-life [5, 21]: 3.83 ± 3.03 h
